Data published in EP0561516A1, “Process for stabilizing chlorinated polyethylene against degradation” (THE DOW CHEMICAL COMPANY, priority 1992, dated 1993).

What was measured:
Type in all cases: physicochemical
[1] = Thermal degradation (weight loss) by TGA at 180 °C in nitrogen purge; settings: TGA 180 °C, 60 minutes, 0.3% antioxidant added to CPE slurry heated to 80 °C for 90 minutes
Description: The thermal degradation (weight loss) of the following samples is measured by TGA at 180 °C (in a nitrogen purge during 60 minutes).

[2] = Extension at break after roll milling, dry blending versus liquid-liquid addition of antioxidant; settings: with calcium stearate, epoxidized soja bean oil, titanium dioxide
Description: In order to illustrate the advantages of liquid-liquid blending over dry blending, a sample of CPE containing 36% chlorine, having a density of 1.18 g/cm³, a weight average molecular weight of 2x10⁵ and a cristallinity of 0.5% is mixed in a food processor with 1% calcium stearate, 1% epoxidized soja bean oil and 0.5% titanium dioxide, based on the weight of the CPE. The mixture is formed into a sheet of 3 mm thickness on a roll mill at 190 °C, and its tensile properties are measured. The extension at break is a measure of the molecular weight of a polymer. The material breaks at 596% extension.
Another sample of the same material is milled for 15 minutes at 190 °C before a sheet of 3 mm thickness is formed.
The antioxidant IRGANOX 1076 (trademark) is added to the mixture as described above at an amount of 0.25% by the weight of the CPE using the food mixer. The resulting mixture is milled for 15 minutes. The extension at break of a sheet of 3 mm thickness, prepared as indicated above, is 740%, showing that the degree of chain scission is reduced by the addition of the antioxidant. (comparative run, but not State of the Art.)
To an aqueous slurry containing 16 % of the CPE, based on the total weight of the slurry, 0.25% IRGANOX 1076 (trademark), by the weight of CPE is added in the manner described in Example 1. The mixture is dried as described in Example 1. […]

[3] = Total organic carbon (TOC) of the slurry, test of antioxidant deposition on CPE; settings: 60 minutes after addition of 0.5% antioxidant to the CPE slurry; 11.8 ppm before addition
Description: In order to test that the antioxidant has actually deposited on the CPE, rather than on the reactor walls, the total organic carbon (TOC) of the slurry is measured, and a glass slide placed in the reactor during the test is investigated for deposition of antioxidant.

extension at break ([2]; 0.25% antioxidant added to aqueous slurry with 16% CPE (method of the invention), 15 minutes milling) [%] | extension at break ([2]; 0.25% antioxidant dry-blended in food mixer (comparative run), milled 15 minutes at 190 °C, sheet of 3 mm) [%] | total organic carbon (TOC) of the slurry [3] [ppm] | SMILES | thermal degradation (weight loss) [1] [ppm/min.]
– | – | – | Cc1cc(CCC(=O)OCCOCCOCCOC(=O)CCc2cc(C)c(O)c(C(C)(C)C)c2)cc(C(C)(C)C)c1O [IRGANOX 245, triethylene glycol bis [3-tert-butyl-4-hydroxy-5-methylphenyl]propionate] | 75
704 | 740 | 10.0 | CCCCCCCCCCCCCCCCCCOC(=O)CCc1cc(C(C)(C)C)c(O)c(C(C)(C)C)c1 [IRGANOX 1076, Octadecyl 3,5-di-tert-butyl-4-hydroxyhydrocinnamate] | –
